Results: publication PMC3229523, “Identification of Lactoferricin B Intracellular Targets Using an Escherichia coli Proteome Chip” (PLoS ONE, 2011)
Entries after “also recorded” stand apart in the source; their conditions may differ. Ends that are not written are not given here. * marks the point of attachment. Biotin = O=C1N[C@H]2[C@H](CS[C@H]2CCCCC(=O)*)N1

Tests used:
NrdF = assay: Fluorescence polarization assay, NrdF; assay type: binding, E. coli
Source text: (§1) FP assays, investigations of the binding between two molecules in a homogeneous aqueous environment, were used to validate the identified 153 proteins. […] If a fluorophore only binds to a small molecule, such as peptide, the rotation of the complex is fast and the light emits in a different plane of polarization. Therefore, the degree of polarization is low. However, once a fluorophore binds to a large molecule, the bound complex is stimulated with polarized light. The light emits in the same polarized plane, and the complex is maintained in the same plane of polarization, causing an increase in the degree of polarization [22]–[24]. The amount of molecules binding to a fluorophore influences the degree of polarization. In this study, LfcinB was labeled with DyLight™ 549 as a reference value. Once the protein bound to LfcinB, like a fluorophore binds to a large molecule, a high degree of polarization is expected.
(§2) Before the assays, LfcinB was labeled with DyLight™ 549 and tested proteins were quantified with a Pierce® bicinchoninic acid (BCA™) protein assay (Thermo). To label the LfcinB, DyLight™ 549-NHS ester and LfcinB (68∶1, mole/mole) were mixed in PBS at room temperature for 1 h, a D-Salt™ polyacrylamide desalting column (Thermo) was used to remove excess dye and the labeling efficiency of the eluted solution was calculated. […]

MetL = assay: Fluorescence polarization assay, MetL; assay type: binding, E. coli
Source text: as §1, §2

CyaA = tested on: CyaA
Source text: as §1, §2

YnhE = assay: Fluorescence polarization assay, YnhE; assay type: binding, E. coli; settings: 100 nM DyLight 549-labeled LfcinB; protein 0.025-0.4 µM; data not shown
Source text: as §1, §2

YdaU = assay: Fluorescence polarization assay, YdaU; assay type: binding, E. coli; settings: 100 nM DyLight 549-labeled LfcinB; protein 0.025-0.4 µM; data not shown
Source text: as §1, §2

YcaO = assay: Fluorescence polarization assay, YcaO; assay type: binding, E. coli; settings: 100 nM DyLight 549-labeled LfcinB; protein 0.025-0.4 µM; data not shown
Source text: as §1, §2

GldA = assay: Fluorescence polarization assay, GldA; assay type: binding, E. coli; settings: 100 nM DyLight 549-labeled LfcinB; protein 0.025-0.4 µM; data not shown
Source text: as §1, §2

[1] = tested on: Bovine Serum Albumin, BSA; assay: Fluorescence polarization assay, BSA negative control; assay type: binding; settings: BSA 0.4, 0.2, 0.1, 0.05 µM (negative control); 100 nM labeled LfcinB
Source text: as §1, §2

E. coli MG1655 = assay: Pyruvate assay: E. coli growth (OD595); assay type: cell-based; settings: 32 µM LfcinB
Source text: (§3) To confirm one of the mechanisms of LfcinB action in pyruvate metabolism, a minimal medium was chosen; because general LB medium contains many carbon sources, including sugars, alcohols and organic acids, this minimal medium allowed glucose to be the sole carbon source in the pyruvate assays. Minimal medium consisted of 6 g/l NaH2PO4, 3 g/l K2HPO4, 0.5 g/l NaCl, 0.12 g/l MgSO4, 1 g/l NH4Cl, 0.01 g/l CaCl2 and 5 g/l glucose. A 0.22 µm filter (Millex®GS, Millipore) was used to filter the minimal medium. E. coli MG1655 was first inoculated into the minimal medium and incubated at 37°C for 16 h with shaking as a preculture. The preculture was diluted 100-fold with the minimal medium in 96-well plate, and 32 µM of LfcinB were added. The mixture was incubated with shaking in a microplate reader at 37°C, and the absorbance was measured after 9 h. Finally, the mixture was harvested by centrifugation at 3452 g for 5 min at 4°C, and each supernatant was removed. The pellets were then stored at −80°C.

pyruvate in E. coli = assay: Pyruvate assay: pyruvate level in E. coli (OD570); assay type: cell-based, E. coli MG1655; settings: 32 µM LfcinB
Source text: as §3
To extract the pyruvate in E. coli, hot water extraction was used, a procedure adapted from Canelas et al.. Boiling water was poured into the pellet and it was immediately vortexed. The mixture was then placed in a water bath at 95–100°C for 15 min and cooled on ice. […] Finally, the OD570 of the mixtures was measured by a microplate reader to detect the color intensity.

E. coli = settings: cited from earlier work
Protocol: Natural antimicrobial peptides are pervasive in plants, insects and animals. […] It is possible that LfcinB served as nutrient for bacteria in the beginning of the assay. […] In the middle part (2–4 h) of the growth curves, the ...

bacteria = settings: cited from earlier work
Source text: Natural antimicrobial peptides are pervasive in plants, insects and animals.

Substance: Lactoferricin B (Biotin-FKCRRWQWRMKKLGAPSITCVRRAF; ends and bridges not checked) [LfcinB]
- degree of polarization vs BSA (NrdF; 100 nM DyLight 549-labeled LfcinB, protein 0.025-0.4 µM, PBS, 0.005% BSA, 0.01% Triton X-100, room temperature, 1 h, Figure 5B): higher polarization than the negative control
- concentration dependence of polarization (NrdF; NrdF, two-fold dilution 0.4 µM to 0.025 µM, 100 nM labeled LfcinB): increased with increasing concentrations of these 4 proteins
- degree of polarization vs BSA (MetL; 100 nM DyLight 549-labeled LfcinB, protein 0.025-0.4 µM, PBS, 0.005% BSA, 0.01% Triton X-100, room temperature, 1 h, Figure 5C): higher polarization than the negative control
- concentration dependence of polarization (MetL; MetL, two-fold dilution 0.4 µM to 0.025 µM, 100 nM labeled LfcinB): increased with increasing concentrations of these 4 proteins
- degree of polarization vs BSA (CyaA; 100 nM DyLight 549-labeled LfcinB, protein 0.025-0.4 µM, PBS, 0.005% BSA, 0.01% Triton X-100, room temperature, 1 h, Figure 5D): higher polarization than the negative control
- concentration dependence of polarization (CyaA; CyaA, two-fold dilution 0.4 µM to 0.025 µM, 100 nM labeled LfcinB): increased with increasing concentrations of these 4 proteins
- binding to YnhE (YnhE): confirmed to bind to LfcinB
- binding to YdaU (YdaU): confirmed to bind to LfcinB
- binding to YcaO (YcaO): confirmed to bind to LfcinB
- binding to GldA (GldA): confirmed to bind to LfcinB
- concentration dependence of polarization [1]: remained constant with increasing concentrations of BSA
- Value of OD595 after 9 h incubation (E. coli MG1655; minimal medium with glucose, 37°C, 9 h, E. coli without LfcinB 0.325±0.011): 0.267±0.011
- Initial value of OD595 (E. coli MG1655; minimal medium with glucose, 37°C, E. coli without LfcinB 0.057±0.002): 0.058±0.001
- amount (OD595) of E. coli after 9 h with vs without LfcinB (E. coli MG1655; minimal medium, 9 h): lower than the level of E. coli without LfcinB
- pyruvate (OD570) level after 9 h with vs without LfcinB (pyruvate in E. coli; minimal medium): accumulation of pyruvate; also recorded: higher than the level in E. coli without LfcinB
- Value of pyruvate (OD570) after 9 h incubation (pyruvate in E. coli; minimal medium with glucose, 37°C, hot water extraction, pyruvate assay kit, E. coli without LfcinB 1.976±0.084): 2.526±0.338
- DNA synthesis at initiation of LfcinB into the medium (E. coli): DNA synthesis was increased
- DNA, RNA and protein synthesis of E. coli (E. coli; sublethal concentration): inhibited DNA, RNA and protein synthesis of E. coli
- filamentation during an SOS-response (E. coli; sublethal concentration): induced filamentation during an SOS-response
- bacterial growth inhibition and membrane effect (bacteria): inhibits bacterial growth by impeding intracellular activities without destroying membrane integrity or penetrating the cytoplasmic membrane
- mechanism of antimicrobial activity (bacteria): pore-forming mechanism
